Assay results taken from ChEMBL document CHEMBL3885881, “DrugMatrix”.

Organism: Rattus norvegicus
Assay: DrugMatrix - Regimen: Daily Repeat
Format: toxicity, organism-based, Sprague-Dawley
Design: regimen Daily Repeat, gender Male, age 6-8 weeks
Conditions: in vivo, po, 0 mg/kg, route oral GAVAGE, dose level Control, […]; for ABSOLUTE BASOPHIL / ABSOLUTE EOSINOPHIL / ABSOLUTE LYMPHOCYTE / ABSOLUTE MONOCYTE / ABSOLUTE SEGMENTED NEUTROPHIL / BASOPHIL / EOSINOPHIL / ERYTHROCYTE COUNT / HEMATOCRIT / HEMOGLOBIN / LEUKOCYTE COUNT / LYMPHOCYTE / MEAN CORPUSCULAR HEMOGLOBIN / MEAN CORPUSCULAR HEMOGLOBIN CONCENTRATION / MEAN CORPUSCULAR VOLUME / MONOCYTE / NEUTROPHIL / NUCLEATED RED BLOOD CELLS / PLATELET COUNT: tissue Blood; for ALANINE AMINOTRANSFERASE / ALBUMIN / ALKALINE PHOSPHATASE / ASPARTATE AMINOTRANSFERASE / BLOOD UREA NITROGEN / CARBON DIOXIDE / CHLORIDE / CHOLESTEROL / CREATINE PHOSPHOKINASE / CREATININE / GLUCOSE / LACTATE DEHYDROGENASE / LIPASE / PHOSPHORUS / POTASSIUM / SODIUM / TOTAL BILIRUBIN / TOTAL PROTEIN / URIC ACID: tissue Plasma

CS(=O)(=O)Nc1ccc([N+](=O)[O-])cc1Oc1ccccc1 [NIMESULIDE]
ABSOLUTE BASOPHIL (72 h, time 3 day): 0 CELLS/uL | ABSOLUTE EOSINOPHIL (72 h, time 3 day): 0 CELLS/uL | ABSOLUTE LYMPHOCYTE (72 h, time 3 day): 7601 CELLS/uL | ABSOLUTE MONOCYTE (72 h, time 3 day): 354.33 CELLS/uL | ABSOLUTE SEGMENTED NEUTROPHIL (72 h, time 3 day): 744.67 CELLS/uL | BASOPHIL (72 h, time 3 day): 0% | EOSINOPHIL (72 h, time 3 day): 0% | ERYTHROCYTE COUNT (72 h, time 3 day): 5.03 x10E6/uL | HEMATOCRIT (72 h, time 3 day): 33.7% | HEMOGLOBIN (72 h, time 3 day): 13.43 G/DL | LEUKOCYTE COUNT (72 h, time 3 day): 8.7 x10E3/uL | LYMPHOCYTE (72 h, time 3 day): 86.33% | MEAN CORPUSCULAR HEMOGLOBIN (72 h, time 3 day): 26.7 pg | MEAN CORPUSCULAR HEMOGLOBIN CONCENTRATION (72 h, time 3 day): 39.83 G/DL | MEAN CORPUSCULAR VOLUME (72 h, time 3 day): 67 fL | MONOCYTE (72 h, time 3 day): 4.67% | NEUTROPHIL (72 h, time 3 day): 9% | NUCLEATED RED BLOOD CELLS (72 h, time 3 day): 0 /100WBC | PLATELET COUNT (72 h, time 3 day): 1151 x10E3/uL | ALANINE AMINOTRANSFERASE (72 h, time 3 day): 97.67 u/L | ALBUMIN (72 h, time 3 day): 4.07 G/DL | ALKALINE PHOSPHATASE (72 h, time 3 day): 607.67 u/L | ASPARTATE AMINOTRANSFERASE (72 h, time 3 day): 101 u/L | BLOOD UREA NITROGEN (72 h, time 3 day): 13.33 mg/dL | CARBON DIOXIDE (72 h, time 3 day): 36 mmol/L | CHLORIDE (72 h, time 3 day): 99.67 MEQ/L | CHOLESTEROL (72 h, time 3 day): 75.67 mg/dL | CREATINE PHOSPHOKINASE (72 h, time 3 day): 279.67 u/L | CREATININE (72 h, time 3 day): 0.16 mg/dL | GLUCOSE (72 h, time 3 day): 164 mg/dL | LACTATE DEHYDROGENASE (72 h, time 3 day): 115 u/L | LIPASE (72 h, time 3 day): 12.67 u/L | PHOSPHORUS (72 h, time 3 day): 8.77 mg/dL | POTASSIUM (72 h, time 3 day): 5.79 MEQ/L | SODIUM (72 h, time 3 day): 142.83 MEQ/L | TOTAL BILIRUBIN (72 h, time 3 day): 0.27 mg/dL | TOTAL PROTEIN (72 h, time 3 day): 5.8 G/DL | URIC ACID (72 h, time 3 day): 0.67 mg/dL | ABSOLUTE BASOPHIL (120 h, time 5 day): 0 CELLS/uL | ABSOLUTE EOSINOPHIL (120 h, time 5 day): 0 CELLS/uL | ABSOLUTE LYMPHOCYTE (120 h, time 5 day): 4426.33 CELLS/uL | ABSOLUTE MONOCYTE (120 h, time 5 day): 102.67 CELLS/uL | ABSOLUTE SEGMENTED NEUTROPHIL (120 h, time 5 day): 337.67 CELLS/uL | BASOPHIL (120 h, time 5 day): 0% | EOSINOPHIL (120 h, time 5 day): 0% | ERYTHROCYTE COUNT (120 h, time 5 day): 5.31 x10E6/uL | HEMATOCRIT (120 h, time 5 day): 32.5% | HEMOGLOBIN (120 h, time 5 day): 13.17 G/DL | LEUKOCYTE COUNT (120 h, time 5 day): 4.87 x10E3/uL | LYMPHOCYTE (120 h, time 5 day): 90.33% | MEAN CORPUSCULAR HEMOGLOBIN (120 h, time 5 day): 24.93 pg | MEAN CORPUSCULAR HEMOGLOBIN CONCENTRATION (120 h, time 5 day): 40.67 G/DL | MEAN CORPUSCULAR VOLUME (120 h, time 5 day): 61.33 fL | MONOCYTE (120 h, time 5 day): 2.33% | NEUTROPHIL (120 h, time 5 day): 7.33% | NUCLEATED RED BLOOD CELLS (120 h, time 5 day): 0.33 /100WBC | PLATELET COUNT (120 h, time 5 day): 848.33 x10E3/uL | ALANINE AMINOTRANSFERASE (120 h, time 5 day): 59.67 u/L | ALBUMIN (120 h, time 5 day): 3.87 G/DL | ALKALINE PHOSPHATASE (120 h, time 5 day): 452 u/L | ASPARTATE AMINOTRANSFERASE (120 h, time 5 day): 81.33 u/L | BLOOD UREA NITROGEN (120 h, time 5 day): 13.67 mg/dL | CARBON DIOXIDE (120 h, time 5 day): 26.33 mmol/L | CHLORIDE (120 h, time 5 day): 103.67 MEQ/L | CHOLESTEROL (120 h, time 5 day): 65.67 mg/dL | CREATINE PHOSPHOKINASE (120 h, time 5 day): 355.33 u/L | CREATININE (120 h, time 5 day): 0.14 mg/dL | GLUCOSE (120 h, time 5 day): 171.33 mg/dL | LACTATE DEHYDROGENASE (120 h, time 5 day): 118 u/L | LIPASE (120 h, time 5 day): 11.33 u/L | PHOSPHORUS (120 h, time 5 day): 11.13 mg/dL | POTASSIUM (120 h, time 5 day): 5.18 MEQ/L | SODIUM (120 h, time 5 day): 143.17 MEQ/L | TOTAL BILIRUBIN (120 h, time 5 day): 0.2 mg/dL | TOTAL PROTEIN (120 h, time 5 day): 5.87 G/DL | URIC ACID (120 h, time 5 day): 0.63 mg/dL
